One test addresses T1, CHK1 kinase (Homo sapiens, UniProt O14757).
T1 construct: endogenous in cells; host or cells: A375 human malignant melanoma cells (ATCC)
T1 sequence (O14757 1-476): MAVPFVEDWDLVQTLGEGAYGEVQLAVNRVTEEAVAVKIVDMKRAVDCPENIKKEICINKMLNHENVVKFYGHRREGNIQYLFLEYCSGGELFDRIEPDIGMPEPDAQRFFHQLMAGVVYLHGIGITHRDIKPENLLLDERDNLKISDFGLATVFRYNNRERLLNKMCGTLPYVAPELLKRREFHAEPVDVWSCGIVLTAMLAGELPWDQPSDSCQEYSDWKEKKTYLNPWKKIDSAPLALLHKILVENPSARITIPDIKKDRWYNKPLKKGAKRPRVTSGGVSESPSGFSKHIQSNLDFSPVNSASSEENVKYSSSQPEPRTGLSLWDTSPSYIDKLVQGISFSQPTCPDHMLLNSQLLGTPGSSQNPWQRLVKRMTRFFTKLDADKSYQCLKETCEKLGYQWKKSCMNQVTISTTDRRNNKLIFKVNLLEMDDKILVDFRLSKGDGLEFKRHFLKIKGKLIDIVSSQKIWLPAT
In words: CHK1 degradation in A375 melanoma cells, western blotting. It counts as cell-based. The settings on record: western blot; for degradation of CHK1 kinase: 18 h treatment, 37° C., FIG. 6. As for the experimental part: (§1) Tests were performed to determine the activity of the exemplary PROTACs PEG1-thalidomide, PEG2-thalidomide, PEG3-thalidomide, and PEG4-thalidomide having the structures shown above. Human A375 malignant melanoma cells were obtained from American Type Culture Collection ATCC) and cultured according to ATCC protocols. Subsequently cells were treated with the PROTACs for 18 h at 37° C. and 5% CO2. Subsequently cells were harvested and lysed using commercially available lysis buffer (Biorad) containing Roche cOmplete™ Protease Inhibitor Cocktail tablets. The amount of degraded proteins were probed with specific antibodies purchased from Cell Signaling in western blotting. α-Tubulin was used as the loading control.
In further tests, human A375 malignant melanoma cells were treated with PEG2-thalidomide at different concentrations for 12 h at 37° C. and 5% CO2. Proteins CHK1, GAPDH, and α-Tubulin were probed by specific antibodies. GAPDH and α-Tubulin were used as the loading control. […] Cell culture conditions, lysis and western blotting were performed similar to above.

Test [1] has as its system A375 malignant melanoma cells. Briefly: A375 cell viability, CellTiter Glo assay. The settings on record: Homo sapiens, A-375, 48 h treatment, 384 well plates, FIG. 10. In kind it is cell-based. The method, then:
In further tests, human A375 malignant melanoma cells were treated with PEG2-thalidomide for 48 h at 37° C. and 5% CO2. Subsequently, the viability of A375 malignant melanoma cells was checked using CellTiter Glo assay (Promega) in 384 well plates, and the luminescence signal was quantified using Biotek H1 plate reader.
(Cellular ATP, detected with luciferase, serves as a proxy for viable cell number.)

The next test deals with ERK kinase. Briefly: ERK degradation in A375 melanoma cells, western blotting. In kind it is cell-based, human. The settings on record: 12 h, western blot, FIG. 8. As for the experimental part: as §1
(§2) In further tests, the effect of PEG2-Thalidomide degrader […] was tested. Human A375 malignant melanoma cells were treated with PEG2-thalidomide for 12 h at 37° C. and 5% CO2. Proteins MEK and ERK were probed by specific antibodies. The procedure used was similar to the one outlined above.
On the technique in general: A western blot detects proteins with antibodies after separation by electrophoresis.

The next test concerns MEK kinase. In words: MEK degradation in A375 melanoma cells, western blotting. As to conditions: 12 h, western blot, FIG. 8. It counts as cell-based, human. As for the experimental part: as §1, §2

`N#CCc1ccc(Nc2nc(Nc3cc(C4CC4)[nH]n3)cc(C(=O)NCc3cn(CCOCCOCCOCCOCCNC(=O)COc4cccc5c4C(=O)N(C4CCC(=O)NC4=O)C5=O)nn3)n2)cc1` (stereo not drawn) [PEG4-thalidomide]: the “degradation of CHK1 kinase” value on CHK1 kinase is given as “degrade the protein CHK1”.

As a reminder, the IC50 is the point on the concentration scale where inhibition reaches its midpoint. A higher IC50 goes with weaker potency in that assay. `N#CCc1ccc(Nc2nc(Nc3cc(C4CC4)[nH]n3)cc(C(=O)NCc3cn(CCOCCOCCNC(=O)COc4cccc5c4C(=O)N(C4CCC(=O)NC4=O)C5=O)nn3)n2)cc1` (stereo not drawn) [PEG2-thalidomide] gave an IC50 in test [1] of 768 nM. In addition, the “degradation of ERK kinase” value with ERK kinase was “not ERK”. Further, the “degradation of MEK kinase” value in the test on MEK kinase was “degradation of MEK”. In addition, the “degradation of CHK1 kinase” value at CHK1 kinase is on record as “degrade the protein CHK1”. The “dose response of degradation of CHK1” value at CHK1 kinase (different concentrations, 12 h, FIG. 7) is on record as “demonstrating its degradation”.

Source of the values: patent US12517113B2, “Multikinase degraders” (University of Houston System, priority 2019, dated 2026).
